Patent US7078178B2, “Methods of altering calcium transport” (priority 1999, dated 2006)

Assays:
CaT1 [1] = target: T1, CaT1 (Rattus norvegicus, UniProt Q9R186); assay: ^45Ca^2+ uptake assay in Xenopus laevis oocytes expressing CaT1; type: cell-based; details: for inhibition of ^45Ca^2+ uptake by di- and trivalent cations: 1 mM Ca^2+, cation 100 μM; for inhibition of ^45Ca^2+ uptake: cation 10 mM
T1 construct: ID; No. 4; expressed in transfected cells; host or cells: Xenopus laevis oocytes injected with synthetic cRNA of the cloned rat cDNA
T1 sequence (Q9R186 41-767): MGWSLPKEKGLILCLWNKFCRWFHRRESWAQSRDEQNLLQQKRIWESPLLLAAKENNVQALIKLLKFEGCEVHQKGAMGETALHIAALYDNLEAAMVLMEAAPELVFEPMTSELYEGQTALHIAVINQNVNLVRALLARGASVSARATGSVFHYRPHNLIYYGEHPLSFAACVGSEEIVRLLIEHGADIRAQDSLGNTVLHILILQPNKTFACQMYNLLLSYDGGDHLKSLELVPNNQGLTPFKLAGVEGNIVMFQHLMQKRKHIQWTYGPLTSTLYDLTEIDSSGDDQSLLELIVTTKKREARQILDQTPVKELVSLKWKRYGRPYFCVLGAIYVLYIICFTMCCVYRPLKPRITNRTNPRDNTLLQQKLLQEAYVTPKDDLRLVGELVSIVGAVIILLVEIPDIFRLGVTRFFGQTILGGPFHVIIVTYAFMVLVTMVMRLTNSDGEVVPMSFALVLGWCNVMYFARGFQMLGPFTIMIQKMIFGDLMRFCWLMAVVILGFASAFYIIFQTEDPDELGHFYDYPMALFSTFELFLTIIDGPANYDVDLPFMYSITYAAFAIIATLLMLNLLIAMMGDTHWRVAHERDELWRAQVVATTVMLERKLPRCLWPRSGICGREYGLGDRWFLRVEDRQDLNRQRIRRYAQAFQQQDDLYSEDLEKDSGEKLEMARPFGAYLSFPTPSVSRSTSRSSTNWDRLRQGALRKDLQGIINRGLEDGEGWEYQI
Procedure: ^45Ca^2+ uptake assay—Defolliculated Xenopus laevis oocytes were injected with either 50 nl of water or RNA. ^45Ca^2+ uptake was assayed 3 days after injection of poly(A)^+ or 1–3 days a injection of synthetic complementary RNA (cRNA). For expression cloning, oocytes were incubated in modified Barth's solution supplemented with 1 mM SrCl2 (to avoid excessive loading of oocytes with Ca^2+) as well as penicillin, streptomycin and gentamycin at 1 mg/ml. Standard uptake solution contained the following components (in mM): NaCl 100, KCl 2, MgCl2 1, CaCl2 1 (including ^45Ca^2+), Hepes 10, pH 7.5. Uptake was performed at room temperature for 30 minutes (for the expression cloning procedure, 2 hour uptakes were employed), and oocytes were washed 6 times with ice-cold uptake medium plus 20 mM MgCl2. […] Control experiments were performed with the appropriate ethanol and DMSO concentrations. Unless stated specifically, data are presented as means obtained from at least three experiments with 7 to 10 oocytes per group with standard error of the mean (S.E.M.) as the index of dispersion. Statistical significance was defined as having a P value of less than 0.05 as determined by Student's t-test.

CaT1 [2] = target: T1, CaT1; assay: Two-microelectrode voltage clamp of oocytes expressing CaT1; type: cell-based; details: for currents evoked by metal ions / effect on Ca^2+-evoked currents: each at 100 μM; for current as percentage of the current evoked by 5 mM Ca^2+: 5 mM cation, EGTA-injected oocytes clamped at −50 mV, n=17
Procedure: (§1) Two-microelectrode voltage clamp experiments were performed using standard techniques (see Chen et al., J. Biol. Chem. 274:2773–2779 (1999)) using a commercial amplifier and pCLAMP software (Version 7, Axon Instruments, Inc., Foster City, Calif.). An oocyte was introduced into the chamber containing Ca^2+-free solution and was incubated for about 3 minutes before being clamped at −50 mV and subjected to measurements. In experiments involving voltage ramps or jumps, whole-cell current and voltage were recorded by digitizing at 300 μs/sample and by Bessel filtering at 10 kHz. When recording currents at a holding potential, digitization at 0.2 s/sample and filtering at 20 Hz were employed. Voltage ramping consisted of pre-holding at −150 mV for 200 ms to eliminate capacitive currents and a subsequent linear increase from −150 to +50 mV, with a total duration of […]. Voltage jumping consisted of 150 ms voltage pulses of between −140 and +60 mV, in increments of +20 mV. Steady-state currents were obtained as the average values in the interval from 135 to 145 ms after the initiation of the voltage pulses. For experiments involving voltage-clamped ^45Ca^2+ uptake, Ca^2+-evoked currents and uptake of ^45Ca^2+ were simultaneously measured at −50 mV, using a method similar to that described in Chen et al. (cited above).

CaT1 mRNA = assay: Northern analysis of CaT1 mRNA in rat duodenum in vivo
Procedure: Northern analysis procedures were as follows. Poly(A)^+ RNA (3 μg) from rat tissues were electrophoresed in formaldehyde-agarose gels and transferred to nitrocellulose membranes. The filters were probed with ^32P-labeled full-length CaT1 cDNA, hybridized at 42° C. with a solution containing 50% formamide, 5×SSPE, 2× Denhardt's solution, 0.1% SDS and 100 μg/ml denatured salmon sperm DNA (and washed with 5×SSC/0.1% SDS at 50° C. for 2×30 minutes and 0.1×SSC at 65° C. for 3×30 minutes. Autoradiography was performed at −80° C. for 1 to 2 days.

[3] = system: endogenous Ca^2+-activated chloride-channel currents; assay: Block of the peak current in voltage-clamped oocytes by chloride channel blockers; type: cell-based, Xenopus laevis; details: 5 mM Ca^2+; holding potential −50 mV
Procedure: as §1, with “above). […]” for “above).”

| Compound | inhibition of ^45Ca^2+ uptake by di- and trivalent cations (CaT1 [1]) | currents evoked by metal ions (CaT1 [2]) | effect on Ca^2+-evoked currents (CaT1 [2]) | also measured |
| --- | --- | --- | --- | --- |
| [Ca+2] [Ca^2+] |  |  |  | Km (CaT1 [1]; CaT1 expressed in oocytes, read-out: apparent Michaelis constant (Km) of Ca^2+ uptake): 440 ± 70 µM; plateau value of inward current (CaT1 [2]; 5 mM Ca^2+, holding potential −50 mV): 20–50 nA |
| [Na+] [Na^+] |  |  |  | Ca^2+ entry with extracellular Na^+ (CaT1 [1]; non-clamped oocytes, Ca^2+ applied for 30 minutes): enhanced; Ca^2+-evoked currents in the presence versus absence of Na^+ (CaT1 [2]; 100 mM Na^+): slightly lower |
| [Cu+2] [Cu^2+] | marked to moderate inhibition | did not evoke measurable currents | inhibited |  |
| [Ba+2] [Ba^2+] |  |  |  | inhibition of ^45Ca^2+ uptake (CaT1 [1]): only slight inhibitory effects; current as percentage of the current evoked by 5 mM Ca^2+ (CaT1 [2]): 12±2% |
| [Mn+2] [Mn^2+] | no significant effects | did not evoke measurable currents | no observable effects |  |
| [Sr+2] [Sr^2+] |  |  |  | inhibition of ^45Ca^2+ uptake (CaT1 [1]): only slight inhibitory effects; current as percentage of the current evoked by 5 mM Ca^2+ (CaT1 [2]): 20±4% |
| C=C1/C(=C\C=C2/CCC[C@]3(C)[C@@H]([C@H](C)CCCC(C)(C)O)CC[C@@H]23)C[C@@H](O)C[C@@H]1O [1,25-dihydroxyvitamin D3] |  |  |  | regulation of CaT1 mRNA in rat duodenum (CaT1 mRNA): not regulated |
| [Mg+2] [Mg^2+] |  |  |  | inhibition of ^45Ca^2+ uptake (CaT1 [1]): no significant inhibition; blocker of CaT1 (CaT1 [2]): nor an effective blocker; substrate of CaT1 (CaT1 [2]; up to 20 mM): neither a substrate |
| [Pb+2] [Pb^2+] | marked to moderate inhibition | did not evoke measurable currents | inhibited |  |
| [Co+2] [Co^2+] | marked to moderate inhibition | did not evoke measurable currents | inhibited |  |
| COc1cc(CNC(=O)CCCC/C=C/C(C)C)ccc1O [Capsaicin, capsaicin] |  |  |  | stimulation of CaT1-mediated ^45Ca^2+ uptake in oocytes (CaT1 [1]; capsaicin up to 50 μM): did not stimulate |
| [Cd+2] [Cd^2+] | marked to moderate inhibition | did not evoke measurable currents | inhibited |  |
| [Gd+3] [Gd^3+] | marked to moderate inhibition | did not evoke measurable currents | inhibited |  |
| [Ni+2] [Ni^2+] |  | did not evoke measurable currents | inhibited |  |
| [Fe+3] [Fe^3+] | no significant effects | did not evoke measurable currents | no observable effects |  |
| O=C(O)c1ccccc1Nc1cccc(C(F)(F)F)c1 [flufenamate] |  |  |  | block of the peak current [3]: could be blocked |
| O=C(O)CN(CCOCCOCCN(CC(=O)O)CC(=O)O)CC(=O)O [EGTA, ethylene glycol-bis(β-aminoethylether)-N,N,N′,N′-tetraacetic acid] |  |  |  | increase in Ca^2+ uptake (CaT1 [1]; EGTA injected into oocytes to a final concentration of 1–2 mM): three- to five-fold increase; effect on overshoot of Ca^2+-evoked inward current (CaT1 [2]; EGTA injected to a final concentration of 1–2 mM, −50 mV): abolished the overshoot |
| C/C=C(/C)C(=O)O[C@H]1C(C)=C2[C@H]([C@@H]1OC(=O)CCCCCCC)[C@@](C)(OC(C)=O)C[C@H](OC(=O)CCC)[C@@]1(O)[C@H]2OC(=O)[C@@]1(C)O [thapsigargin] |  |  |  | CaT1-mediated Ca^2+ activity relative to its baseline activity (CaT1 [1]; depletion of calcium stores by thapsigargin treatment): about 20% |
| [La+3] [La^3+] | marked to moderate inhibition | did not evoke measurable currents | inhibited |  |
| [Zn+2] [Zn^2+] |  | did not evoke measurable currents | no observable effects |  |
